From patent US10941152B2, “Pyrazole compounds as modulators of FSHR and uses thereof” (TOCOPHERX, INC., priority 2014, dated 2021)

Each molecule was assayed against T1, FSHR (Homo sapiens, UniProt P23945) (assay: EC50 of cyclic AMP production in CHO FSHR cells + EC20 FSH (Assay A)). Details: cyclic AMP production in CHO FSHR cells + EC20 FSH (0.265 pM), HTRF.
T1 construct: expressed in transfected cells; host or cells: CHO (Cho-FSHR-LUC-1-1-43)
T1 sequence (P23945 18-695): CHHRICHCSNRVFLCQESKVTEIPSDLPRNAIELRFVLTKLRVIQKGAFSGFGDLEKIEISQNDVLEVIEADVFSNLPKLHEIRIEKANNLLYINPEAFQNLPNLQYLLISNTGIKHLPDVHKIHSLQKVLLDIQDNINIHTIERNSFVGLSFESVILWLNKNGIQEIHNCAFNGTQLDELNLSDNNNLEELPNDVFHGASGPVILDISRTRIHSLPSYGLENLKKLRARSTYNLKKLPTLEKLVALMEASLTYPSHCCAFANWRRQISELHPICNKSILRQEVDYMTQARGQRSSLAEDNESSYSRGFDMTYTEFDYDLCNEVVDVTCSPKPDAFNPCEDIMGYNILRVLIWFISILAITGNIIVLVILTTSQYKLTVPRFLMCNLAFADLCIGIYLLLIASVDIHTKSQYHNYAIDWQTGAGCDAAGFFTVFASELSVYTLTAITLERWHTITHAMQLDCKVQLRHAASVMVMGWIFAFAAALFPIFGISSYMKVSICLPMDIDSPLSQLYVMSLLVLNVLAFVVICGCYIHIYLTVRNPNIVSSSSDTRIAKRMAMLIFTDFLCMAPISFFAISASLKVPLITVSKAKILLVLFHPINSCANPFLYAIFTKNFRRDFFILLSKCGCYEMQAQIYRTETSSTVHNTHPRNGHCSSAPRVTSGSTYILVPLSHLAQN
Assay type: cell-based
Experimental: Example 24. EC50 of cyclic AMP production in CHO FSHR cells+EC20 FSH (Assay A)
2500 Cho-FSHR-LUC-1-1-43 cells were plated per well in 5 al of phenol red free DMEM/F12+1% FBS. Cells were plated in 384 well, solid white low volume plates (Greiner 784075) by Multidrop. Cells were assayed by adding 100 al of 2×EC20 FSH/IBMX in DMEM/F12+0.1% BSA) by Multidrop to 2 al of test compound stamped in 384 well plates (compounds are diluted 1:50). The final FSH concentration was 0.265 pM, and the final IBMX concentration was 200 μM. The compound plate map was as follows: Column 1: 2 μl of DMSO; Column 2: 2 μl of DMSO; Columns 3-12 and 13-24: 2 μl of test compound, diluted 1:4 in 100% DMSO, or 2 μl of FSH, diluted 1:4 in DMEM/F12+0.1% BSA. The starting concentration for FSH was 50 nM (final concentration was 0.5 nM). Furthermore, Column 23 contained 2 μl of EC100 FSH reference (100×) (diluted in DMEM/F12+0.1% BSA) at a final concentration of 0.5 nM, and Column 24 contained 2 μl of 1 mM AS707664/2 reference compound 2. 5 μl of compound+EC20 FSH mixture were transferred to cell plates (1:2 dilution into 5 μl of cell media) The plates were incubated at 37° C. for 1 h. 10 μl of mixed HTRF (CisBio #62AM4PEC) reagents were added per well and incubated at room temperature for 1 h. The plates were read on Envision using the cAMP HTRF—low volume 384 well protocol. The readout was the calculated fluorescence ratio (665 nm/620 nm). Values given in percent (%) indicate the percental effect (response) at a certain concentration of agonist relative to the maximum response of the FSH standard.

Compound | EC50 [µM]
COc1cc2c(cc1-c1cc(C)cnc1OC)-c1c(c(C(=O)N(C)C(C)(C)C)nn1-c1cc(Cl)cc(Cl)c1)CO2 [Compound 189, N-tert-butyl-1-(3,5-dichlorophenyl)-7-methoxy-8-(2-methoxy-5-methylpyridin-3-yl)-N-methyl-1,4-dihydrochromeno[4,3-c]pyrazole-3-carboxamide] | 0.01 to 0.1
COc1cc(OC)cc(-n2nc(C(=O)N(CCO)C(C)(C)C)c3c2-c2cc(-c4ccn(C)n4)c(OC)cc2OC3)c1 [Compound 124, N-tert-butyl-1-(3,5-dimethoxyphenyl)-N-(2-hydroxyethyl)-7-methoxy-8-(1-methyl-1H-pyrazol-3-yl)-1,4-dihydrochromeno[4,3-c]pyrazole-3-carboxamide] | 0.01 to 0.1
COc1cc2c(cc1-c1ccn(C)n1)-c1c(c(C(=O)N3CCCC3(CO)CC(C)C)nn1-c1ccsc1)CO2 (centres unmarked) [Compound 126, (2-(hydroxymethyl)-2-isobutylpyrrolidin-1-yl)(7-methoxy-8-(1-methyl-1H-pyrazol-3-yl)-1-(thiophen-3-yl)-1,4-dihydrochromeno[4,3-c]pyrazole-3-yl)methanone] | 0.01 to 0.1
COc1cc(OC)cc(-n2nc(C(=O)N3CCOCC3(C)C)c3c2-c2cc(-c4ccccn4)c(OC)cc2OC3)c1 [Compound 47, (1-(3,5-dimethoxyphenyl)-7-methoxy-8-(pyridin-2-yl)-1,4-dihydrochromeno[4,3-c]pyrazol-3-yl)(3,3-dimethylmorpholino)methanone] | 0.01 to 0.1
COc1cc2c(cc1[C@H]1C[C@@H]1C(=O)O)-c1c(c(C(=O)N(C)C(C)(C)C)nn1-c1cc(F)cc(F)c1)CO2 (racemic) [Compound 205] | 0.01 to 0.1
COc1cc(OC)cc(-n2nc(C(=O)N(C)C(C)(C)C)c3c2-c2cc(-c4nn(C)cc4C(N)=O)c(OC)cc2OC3)c1 [Compound 144, N-tert-butyl-8-(4-carbamoyl-1-methyl-1H-pyrazol-3-yl)-1-(3,5-dimethoxyphenyl)-7-methoxy-N-methyl-1,4-dihydrochromeno[4,3-c]pyrazole-3-carboxamide] | > 0.5
COc1cc2c(cc1C#CC(N)=O)-c1c(c(C(=O)N(C)C(C)(C)C)nn1-c1ccsc1)CO2 [Compound 186, 8-(3-amino-3-oxoprop-1-ynyl)-N-tert-butyl-7-methoxy-N-methyl-1-(thiophen-3-yl)-1,4-dihydrochromeno[4,3-c]pyrazole-3-carboxamide] | 0.01 to 0.1
CCC1(COC)CCCN1C(=O)c1nn(-c2ccsc2)c2c1COc1cc(OC)c(-c3ccn(C)n3)cc1-2 (centres unmarked) [Compound 128, (2-ethyl-2-(methoxymethyl)pyrrolidin-1-yl)(7-methoxy-8-(1-methyl-1H-pyrazol-3-yl)-1-(thiophen-3-yl)-1,4-dihydrochromeno[4,3-c]pyrazol-3-yl)methanone] | 0.01 to 0.1
COc1cc2c(cc1-c1ccn(C)n1)-c1c(c(C(=O)N3CCC(S(C)(=O)=O)CC3(C)C)nn1-c1ccsc1)CO2 (centres unmarked) [Compound 129, (2,2-dimethyl-4-(methylsulfonyl)piperidin-1-yl)(7-methoxy-8-(1-methyl-1H-pyrazol-3-yl)-1-(thiophen-3-yl)-1,4-dihydrochromeno[4,3-c]pyrazol-3-yl)methanone] | 0.01 to 0.1
COc1cc2c(cc1-c1cnn(CC(O)CO)c1)-c1c(c(C(=O)N(C)C(C)(C)C)nn1-c1cc(Cl)cc(Cl)c1)CO2 (single isomer, unassigned) [Compound 192, N-tert-butyl-1-(3,5-dichlorophenyl)-8-(1-(2,3-dihydroxypropyl)-1H-pyrazol-4-yl)-7-methoxy-N-methyl-1,4-dihydrochromeno[4,3-c]pyrazole-3-carboxamide] | 0.101 to 0.5
COc1cc2c(cc1-c1ccc(F)c(C(=O)O)c1)-c1c(c(C(=O)N(C)C(C)(C)C)nn1-c1cc(Cl)cc(Cl)c1)CO2 [Compound 180] | 0.01 to 0.1
COc1cc2c(cc1-c1ccn(C)n1)-c1c(c(C(=O)N3CCS(=O)(=O)CC3(C)C)nn1-c1cc(Cl)cc(Cl)c1)CO2 [Compound 13, 4-{[1-(3,5-dichlorophenyl)-7-methoxy-8-(1-methyl-1H-pyrazol-3-yl)-1H,4H-chromeno[4,3-c]pyrazol-3-yl]carbonyl}-3,3-dimethyl-1l{6},4-thiomorpholine-1,1-dione] | 0.01 to 0.1

Second part, the molecule after the results:

EC50 [µM] | Compound
< 0.01 | COc1cc2c(cc1-c1cnn(CC(=O)N(C)C)c1)-c1c(c(C(=O)N3CCOCC3(C)C)nn1-c1cc(Cl)cc(Cl)c1)CO2 [Compound 92, 2-(4-(1-(3,5-dichlorophenyl)-3-(3,3-dimethylmorpholine-4-carbonyl)-7-methoxy-1,4-dihydrochromeno[4,3-c]pyrazol-8-yl)-1H-pyrazol-1-yl)-N,N-dimethylacetamide]
< 0.01 | COc1cc2c(cc1CC(C)C)-c1c(c(C(=O)N(C)C(C)(C)C#N)nn1-c1ccsc1)CO2 [Compound 133, N-(2-cyanopropan-2-yl)-8-isobutyl-7-methoxy-N-methyl-1-(thiophen-3-yl)-1,4-dihydrochromeno[4,3-c]pyrazole-3-carboxamide]
< 0.01 | COc1cc(Cl)cc(-n2nc(C(=O)N(C)C(C)(C)C)c3c2-c2cc(-c4cncc(C#N)c4)c(OC)cc2OC3)c1 [Compound 35, N-tert-butyl-1-(3-chloro-5-methoxyphenyl)-8-(5-cyanopyridin-3-yl)-7-methoxy-N-methyl-1,4-dihydrochromeno[4,3-c]pyrazole-3-carboxamide]
< 0.01 | COc1cc2c(cc1-c1ccccn1)-c1c(c(C(=O)N3CCOCC3(C)C)nn1-c1cc(Cl)cc(Cl)c1)CO2 [Compound 11, (1-(3,5-dichlorophenyl)-7-methoxy-8-(pyridin-2-yl)-1,4-dihydrochromeno[4,3-c]pyrazol-3-yl)(3,3-dimethylmorpholino)methanone]
< 0.01 | COc1cc(OC)cc(-n2nc(C(=O)N3CC[S+]([O-])CC3(C)C)c3c2-c2cc(-c4cncc(C)c4)c(OC)cc2OC3)c1 (centres unmarked) [Compound 45, (1-(3,5-dimethoxyphenyl)-7-methoxy-8-(5-methylpyridin-3-yl)-1,4-dihydrochromeno[4,3-c]pyrazol-3-yl)(S-oxo-3,3-dimethylthiomorpholino)methanone]
< 0.01 | COc1cc2c(cc1-c1cnoc1C)-c1c(c(C(=O)N(C)C(C)(C)C)nn1-c1cc(Cl)cc(Cl)c1)CO2 [Compound 15, N-tert-butyl-1-(3,5-dichlorophenyl)-7-methoxy-N-methyl-8-(5-methylisoxazol-4-yl)-1,4-dihydrochromeno[4,3-c]pyrazole-3-carboxamide]

Each molecule was assayed against T2, follicle-stimulating hormone (FSH) receptor (Rattus norvegicus, UniProt P20395) (assay: Rat granulosa EC50 FSH (Assay B)). Details: not given.
T2 construct: endogenous in cells; host or cells: rat granulosa cells
T2 sequence (P20395 18-692): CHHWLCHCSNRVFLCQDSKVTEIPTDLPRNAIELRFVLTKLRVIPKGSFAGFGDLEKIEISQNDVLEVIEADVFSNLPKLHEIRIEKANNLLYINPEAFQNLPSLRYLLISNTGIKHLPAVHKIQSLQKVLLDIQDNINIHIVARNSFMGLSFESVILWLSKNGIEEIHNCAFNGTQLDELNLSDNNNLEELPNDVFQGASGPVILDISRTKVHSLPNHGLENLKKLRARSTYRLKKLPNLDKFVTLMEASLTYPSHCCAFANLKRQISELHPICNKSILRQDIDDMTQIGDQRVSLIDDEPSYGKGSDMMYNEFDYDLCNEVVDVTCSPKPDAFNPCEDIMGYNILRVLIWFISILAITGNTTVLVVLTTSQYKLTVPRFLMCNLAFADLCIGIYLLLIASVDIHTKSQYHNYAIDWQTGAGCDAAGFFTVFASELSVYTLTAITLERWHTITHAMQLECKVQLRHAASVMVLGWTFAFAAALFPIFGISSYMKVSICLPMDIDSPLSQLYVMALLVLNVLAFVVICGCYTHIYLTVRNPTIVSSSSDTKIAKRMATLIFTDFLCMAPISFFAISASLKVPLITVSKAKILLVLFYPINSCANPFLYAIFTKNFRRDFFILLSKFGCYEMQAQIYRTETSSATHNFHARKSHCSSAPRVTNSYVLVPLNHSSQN
Assay type: cell-based
Experimental: Example 25. Rat granulosa EC50 FSH (Assay B)
The assay was performed pursuant to the teaching of Yanofsky et al. (2006) Allosteric activation of the follicle-stimulating hormone (FSH) receptor by selective, nonpeptide agonists (JBC 281(19): 13226-13233, which is incorporated by reference in the disclosure of the invention).

Compound | EC50 [µM]
COc1cc2c(cc1-c1cnn(CC(=O)N(C)C)c1)-c1c(c(C(=O)N3CCOCC3(C)C)nn1-c1cc(Cl)cc(Cl)c1)CO2 [Compound 92, 2-(4-(1-(3,5-dichlorophenyl)-3-(3,3-dimethylmorpholine-4-carbonyl)-7-methoxy-1,4-dihydrochromeno[4,3-c]pyrazol-8-yl)-1H-pyrazol-1-yl)-N,N-dimethylacetamide] | 0.01 to 0.1
COc1cc2c(cc1-c1cc(C)cnc1OC)-c1c(c(C(=O)N(C)C(C)(C)C)nn1-c1cc(Cl)cc(Cl)c1)CO2 [Compound 189, N-tert-butyl-1-(3,5-dichlorophenyl)-7-methoxy-8-(2-methoxy-5-methylpyridin-3-yl)-N-methyl-1,4-dihydrochromeno[4,3-c]pyrazole-3-carboxamide] | 0.101 to 0.5
